The values below come from patent publication US20260022142A1, “MACROCYCLIC IMMUNOMODULATORS” (Bristol-Myers Squibb Company, priority 2022, published 2026).

The structures appear in SMILES notation. Numbered stars: 1 amine (or outer) side, 2 acyl side, 3 side chain; on linkers, the order of the positions; unused ones are H or OH. Bridge positions count the residues as written; N and C are the ends. Square brackets hold non-standard residues; d marks the D form. Peptide text beside a SMILES is read from it. * marks the point of attachment. ξ: configuration not given here. Bip = N[C@@H](Cc1ccc(-c2ccccc2)cc1)C(=O)O; Phe(3-Me) = Cc1cccc(C[C@H](N)C(=O)O)c1; γGlu = O=C(O)[C@H](CCC(=O)[*:2])N[*:1]; Cha = N[C@@H](CC1CCCCC1)C(=O)O; Thr(3ξ) = CC(O)[C@H](N)C(=O)O; Carboxymethyl = O=C(O)C*; Orn = NCCC[C@H](N)C(=O)O; Aun = NCCCCCCCCCCC(=O)O; Dab = NCC[C@H](N)C(=O)O; Dap = NC[C@H](N)C(=O)O; AEEA = NCCOCCOCC(=O)O

In the assay the target is T1, PD-1/PD-L1 interaction (PE-labeled human PD-L1-Ig binding to Jurkat cell line over-expressing human PD-1) (Homo sapiens, UniProt Q15116).
T1 construct: expressed in transfected cells; host or cells: Jurkat
T1 sequence (Q15116 25-288): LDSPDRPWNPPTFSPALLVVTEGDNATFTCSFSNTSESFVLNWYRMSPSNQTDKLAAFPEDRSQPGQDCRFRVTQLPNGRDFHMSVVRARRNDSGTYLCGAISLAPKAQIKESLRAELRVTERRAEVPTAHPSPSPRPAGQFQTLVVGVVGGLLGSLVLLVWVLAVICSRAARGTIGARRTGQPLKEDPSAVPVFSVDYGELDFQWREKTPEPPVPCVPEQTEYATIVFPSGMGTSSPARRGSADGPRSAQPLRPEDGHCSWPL
Nature of the assay: Jurkat-PD-1 Cell Binding High-Content Screening Assay (CBA). In kind it is cell-based. Particulars: Jurkat cell line over-expressing human PD-1; PE-labeled PD-L1-Ig 20 nM final; read-out: Jurkat hPD1-PDL1 IC50. The procedure, abridged:
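Jurkat cells stably over-expressing human PD-1 were seeded in DMEM with 10% fetal calf serum and pre-incubated with compound for 2 h at 37° C. PE-labeled human PD-L1-Ig was then added at 20 nM final for 1 hour, after which cells were fixed with paraformaldehyde, Hoechst-stained and imaged by high-content microscopy.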
Turning to `Cc1cccc(C[C@@H]2NC(=O)[C@H](CC(=O)O)NC(=O)[C@H](Cc3ccc(OCC(=O)O)cc3)NC(=O)[C@H](CN)NC(=O)CSC[C@@H](C(=O)N[C@H](CC(N)=O)C(=O)NCCCCCCCCCCC(=O)O)NC(=O)[C@H](CO)NC(=O)[C@H](C(C)O)NC(=O)[C@H](CC3CCCCC3)NC(=O)[C@H](CCN)NC(=O)[C@@H](CC(C)C)NC(=O)[C@H](CCCN)NC(=O)[C@H](Cc3ccc(OCC(=O)O)cc3)NC(=O)[C@H](Cc3ccc(-c4ccccc4)cc3)NC(=O)[C@H](Cc3ccc(OCC(=O)O)cc3)NC2=O)c1` (stereo partly drawn) [Compound 3659] ({CH2CO}-[Dap]Y(Carboxymethyl)D[Phe(3-Me)]Y(Carboxymethyl)[Bip]Y(Carboxymethyl)[Orn][dL][Dab][Cha][Thr(3ξ)]SC[dN][Aun]-OH; thioether N-14), the IC50 came out at 47.6 nM.
The same measure for `Cc1cccc(C[C@@H]2NC(=O)[C@H](CC(=O)O)NC(=O)[C@H](Cc3ccc(OCC(=O)O)cc3)NC(=O)[C@H](CCN)NC(=O)CSC[C@@H](C(=O)N[C@H](CC(N)=O)C(=O)NCCCCCCCCCCC(=O)O)NC(=O)[C@H](CO)NC(=O)[C@H](C(C)O)NC(=O)[C@H](CC3CCCCC3)NC(=O)[C@H](CCN)NC(=O)[C@@H](CC(C)C)NC(=O)[C@H](CCCN)NC(=O)[C@H](Cc3ccc(OCC(=O)O)cc3)NC(=O)[C@H](Cc3ccc(-c4ccccc4)cc3)NC(=O)[C@H](Cc3ccc(OCC(=O)O)cc3)NC2=O)c1` (stereo partly drawn) [Compound 3660] ({CH2CO}-[Dab]Y(Carboxymethyl)D[Phe(3-Me)]Y(Carboxymethyl)[Bip]Y(Carboxymethyl)[Orn][dL][Dab][Cha][Thr(3ξ)]SC[dN][Aun]-OH; thioether N-14): 67.9 nM; for `CC(C)C[C@H]1NC(=O)[C@H](CCCN)NC(=O)[C@H](C(C)C)NC(=O)[C@H](Cc2ccc(-c3ccccc3)cc2)NC(=O)[C@H](C(C)C)NC(=O)[C@H](Cc2c[nH]c3ccccc23)NC(=O)[C@H](CC(=O)O)NC(=O)[C@H](Cc2ccc(OCC(=O)O)cc2)NC(=O)[C@H](C(C)O)NC(=O)CSC[C@@H](C(=O)N[C@@H](CCN)C(=O)NCCCCCCCCCCC(=O)O)NC(=O)[C@H](CN)NC(=O)[C@H](C(C)O)NC(=O)[C@H](CC2CCCCC2)NC(=O)[C@H](CCN)NC1=O` (stereo partly drawn) [Compound 3661] ({CH2CO}-[Thr(3ξ)]Y(Carboxymethyl)DWV[Bip]V[Orn][dL][Dab][Cha][Thr(3ξ)][Dap]C[Dab][Aun]-OH; thioether N-14): 35.8 nM.
For `CC(C)C[C@H]1NC(=O)[C@H](CCCN)NC(=O)[C@H](C(C)C)NC(=O)[C@H](Cc2ccc(-c3ccccc3)cc2)NC(=O)[C@H](C(C)C)NC(=O)[C@H](Cc2c[nH]c3ccccc23)NC(=O)[C@H](CC(=O)O)NC(=O)[C@H](Cc2ccc(OCC(=O)O)cc2)NC(=O)[C@H](C(C)O)NC(=O)CSC[C@@H](C(=O)N[C@@H](CCN)C(=O)NCCOCCOCC(=O)N[C@@H](CCC(=O)NCCCCCCCCCCC(=O)O)C(=O)O)NC(=O)[C@H](CN)NC(=O)[C@H](C(C)O)NC(=O)[C@H](CC2CCCCC2)NC(=O)[C@H](CCN)NC1=O` (stereo partly drawn) [Compound 3662] ({CH2CO}-[Thr(3ξ)]Y(Carboxymethyl)DWV[Bip]V[Orn][dL][Dab][Cha][Thr(3ξ)][Dap]C[Dab][AEEA][γGlu][Aun]-OH; thioether N-14), the IC50 was found to be 15.1 nM.
Consider `CC(C)C[C@H]1NC(=O)[C@H](CCCN)NC(=O)[C@H](C(C)C)NC(=O)[C@H](Cc2ccc(-c3ccccc3)cc2)NC(=O)[C@H](C(C)C)NC(=O)[C@H](Cc2c[nH]c3ccccc23)NC(=O)[C@H](CC(=O)O)NC(=O)[C@H](Cc2ccc(OCC(=O)O)cc2)NC(=O)[C@H](C(C)O)NC(=O)CSC[C@@H](C(=O)N[C@@H](CCN)C(=O)NCCOCCOCC(=O)N[C@@H](CCC(=O)NCCCCCCCCCCC(=O)O)C(=O)O)NC(=O)[C@H](CCCCN)NC(=O)[C@H](C(C)O)NC(=O)[C@H](CC2CCCCC2)NC(=O)[C@H](CCN)NC1=O` (stereo partly drawn) [Compound 3663] ({CH2CO}-[Thr(3ξ)]Y(Carboxymethyl)DWV[Bip]V[Orn][dL][Dab][Cha][Thr(3ξ)]KC[Dab][AEEA][γGlu][Aun]-OH; thioether N-14), for which the IC50 is 15.3 nM.
Next, `CC(C)C[C@H]1NC(=O)[C@H](CCCN)NC(=O)[C@H](C(C)C)NC(=O)[C@H](Cc2ccc(-c3ccccc3)cc2)NC(=O)[C@H](C(C)C)NC(=O)[C@H](Cc2c[nH]c3ccccc23)NC(=O)[C@H](CC(=O)O)NC(=O)[C@H](Cc2ccc(OCC(=O)O)cc2)NC(=O)[C@H](C(C)O)NC(=O)CSC[C@@H](C(=O)N[C@@H](CCN)C(=O)NCCCCCCCCCCC(=O)O)NC(=O)[C@H](CO)NC(=O)[C@H](C(C)O)NC(=O)[C@H](CC2CCCCC2)NC(=O)[C@H](CCN)NC1=O` (stereo partly drawn) [Compound 3664] ({CH2CO}-[Thr(3ξ)]Y(Carboxymethyl)DWV[Bip]V[Orn][dL][Dab][Cha][Thr(3ξ)]SC[Dab][Aun]-OH; thioether N-14): 27.7 nM; `CC(C)C[C@H]1NC(=O)[C@H](CCCN)NC(=O)[C@H](C(C)C)NC(=O)[C@H](Cc2ccc(-c3ccccc3)cc2)NC(=O)[C@H](C(C)C)NC(=O)[C@H](Cc2c[nH]c3ccccc23)NC(=O)[C@H](CC(=O)O)NC(=O)[C@H](Cc2ccc(OCC(=O)O)cc2)NC(=O)[C@H](C(C)O)NC(=O)CSC[C@@H](C(=O)N[C@@H](CCN)C(=O)NCCCCCCCCCCC(=O)O)NC(=O)[C@H](Cc2cnc[nH]2)NC(=O)[C@H](C(C)O)NC(=O)[C@H](CC2CCCCC2)NC(=O)[C@H](CCN)NC1=O` (stereo partly drawn) [Compound 3665] ({CH2CO}-[Thr(3ξ)]Y(Carboxymethyl)DWV[Bip]V[Orn][dL][Dab][Cha][Thr(3ξ)]HC[Dab][Aun]-OH; thioether N-14): 23.2 nM.
Turning to `CC(C)C[C@H]1NC(=O)[C@H](CCCN)NC(=O)[C@H](C(C)C)NC(=O)[C@H](Cc2ccc(-c3ccccc3)cc2)NC(=O)[C@H](C(C)C)NC(=O)[C@H](Cc2c[nH]c3ccccc23)NC(=O)[C@H](CC(=O)O)NC(=O)[C@H](Cc2ccc(OCC(=O)O)cc2)NC(=O)[C@H](C(C)O)NC(=O)CSC[C@@H](C(=O)N[C@@H](CCN)C(=O)NCCCCCCCCCCC(=O)O)NC(=O)[C@H](CO)NC(=O)[C@H](CCCCN)NC(=O)[C@H](CC2CCCCC2)NC(=O)[C@H](CCN)NC1=O` (stereo partly drawn) [Compound 3666] ({CH2CO}-[Thr(3ξ)]Y(Carboxymethyl)DWV[Bip]V[Orn][dL][Dab][Cha]KSC[Dab][Aun]-OH; thioether N-14), the IC50 worked out at 32 nM.
Next, `CC(C)C[C@H]1NC(=O)[C@H](CCCN)NC(=O)[C@H](Cc2ccc(O)cc2)NC(=O)[C@H](Cc2ccc(-c3ccccc3)cc2)NC(=O)[C@H](C(C)C)NC(=O)[C@H](Cc2c[nH]c3ccccc23)NC(=O)[C@H](CC(=O)O)NC(=O)[C@H](Cc2ccc(OCC(=O)O)cc2)NC(=O)[C@H](C(C)O)NC(=O)CSC[C@@H](C(=O)N[C@@H](CCN)C(=O)NCCCCCCCCCCC(=O)O)NC(=O)[C@H](CN)NC(=O)[C@H](C(C)O)NC(=O)[C@H](CC2CCCCC2)NC(=O)[C@H](CCN)NC1=O` (stereo partly drawn) [Compound 3667] ({CH2CO}-[Thr(3ξ)]Y(Carboxymethyl)DWV[Bip]Y[Orn][dL][Dab][Cha][Thr(3ξ)][Dap]C[Dab][Aun]-OH; thioether N-14): 37.4 nM.
Next, `CC(C)C[C@H]1NC(=O)[C@H](CCCN)NC(=O)[C@H](Cc2ccc(O)cc2)NC(=O)[C@H](Cc2ccc(-c3ccccc3)cc2)NC(=O)[C@H](C(C)C)NC(=O)[C@H](Cc2c[nH]c3ccccc23)NC(=O)[C@H](CC(=O)O)NC(=O)[C@H](Cc2ccc(OCC(=O)O)cc2)NC(=O)[C@H](C(C)O)NC(=O)CSC[C@@H](C(=O)N[C@@H](CCN)C(=O)NCCCCCCCCCCC(=O)O)NC(=O)[C@H](CCCCN)NC(=O)[C@H](C(C)O)NC(=O)[C@H](CC2CCCCC2)NC(=O)[C@H](CCN)NC1=O` (stereo partly drawn) [Compound 3668] ({CH2CO}-[Thr(3ξ)]Y(Carboxymethyl)DWV[Bip]Y[Orn][dL][Dab][Cha][Thr(3ξ)]KC[Dab][Aun]-OH; thioether N-14): 78.3 nM.
The same measure for `CC(C)C[C@H]1NC(=O)[C@H](CCCN)NC(=O)[C@H](Cc2ccc(O)cc2)NC(=O)[C@H](Cc2ccc(-c3ccccc3)cc2)NC(=O)[C@H](Cc2ccc(O)cc2)NC(=O)[C@H](Cc2c[nH]c3ccccc23)NC(=O)[C@H](CC(=O)O)NC(=O)[C@H](Cc2ccc(OCC(=O)O)cc2)NC(=O)[C@H](C(C)O)NC(=O)CSC[C@@H](C(=O)N[C@@H](CCN)C(=O)NCCCCCCCCCCC(=O)O)NC(=O)[C@H](CN)NC(=O)[C@H](C(C)O)NC(=O)[C@H](CC2CCCCC2)NC(=O)[C@H](CCN)NC1=O` (stereo partly drawn) [Compound 3669] ({CH2CO}-[Thr(3ξ)]Y(Carboxymethyl)DWY[Bip]Y[Orn][dL][Dab][Cha][Thr(3ξ)][Dap]C[Dab][Aun]-OH; thioether N-14): 152 nM; for `CC(C)C[C@H]1NC(=O)[C@H](CCCN)NC(=O)[C@H](Cc2ccc(O)cc2)NC(=O)[C@H](Cc2ccc(-c3ccccc3)cc2)NC(=O)[C@H](Cc2ccc(O)cc2)NC(=O)[C@H](Cc2c[nH]c3ccccc23)NC(=O)[C@H](CC(=O)O)NC(=O)[C@H](Cc2ccc(OCC(=O)O)cc2)NC(=O)[C@H](C(C)O)NC(=O)CSC[C@@H](C(=O)N[C@@H](CCN)C(=O)NCCCCCCCCCCC(=O)O)NC(=O)[C@H](CCCCN)NC(=O)[C@H](C(C)O)NC(=O)[C@H](CC2CCCCC2)NC(=O)[C@H](CCN)NC1=O` (stereo partly drawn) [Compound 3670] ({CH2CO}-[Thr(3ξ)]Y(Carboxymethyl)DWY[Bip]Y[Orn][dL][Dab][Cha][Thr(3ξ)]KC[Dab][Aun]-OH; thioether N-14): 64.2 nM; for `CC(C)C[C@@H]1NC(=O)[C@H](Cc2c[nH]c3ccccc23)NC(=O)[C@H](CC(=O)O)NC(=O)[C@H](Cc2ccc(OCC(=O)O)cc2)NC(=O)[C@H](C(C)O)NC(=O)CSC[C@@H](C(=O)N[C@@H](CCN)C(=O)NCCCCCCCCCCC(=O)O)NC(=O)[C@H](CN)NC(=O)[C@H](C(C)O)NC(=O)[C@H](CC2CCCCC2)NC(=O)[C@H](CCN)NC(=O)[C@@H](CC(C)C)NC(=O)[C@H](CCCN)NC(=O)[C@H](Cc2ccc(O)cc2)NC(=O)[C@H](Cc2ccc(-c3ccccc3)cc2)NC1=O` (stereo partly drawn) [Compound 3671] ({CH2CO}-[Thr(3ξ)]Y(Carboxymethyl)DWL[Bip]Y[Orn][dL][Dab][Cha][Thr(3ξ)][Dap]C[Dab][Aun]-OH; thioether N-14): 105 nM.
